Numbered stars: 1 amine (or outer) side, 2 acyl side, 3 side chain; on linkers, the order of the positions; unused ones are H or OH. Bridge positions count the residues as written; N and C are the ends. Square brackets hold non-standard residues; d marks the D form. Peptide text beside a SMILES is read from it. * marks the point of attachment. pTerphenylCO(4''-OnC5H11) = CCCCCOc1ccc(-c2ccc(-c3ccc(C(=O)*)cc3)cc2)cc1; Orn(4R-OH,5R-OH) = O=C([C@H](C[C@@H](O)[C@@H](O)N[*:3])N[*:1])[*:2]; hTyr(3S-OH,4S-OH) = N[C@H](C(=O)O)[C@H](O)[C@@H](O)c1ccc(O)cc1; Pro(3S-OH,4S-Me) = C[C@H]1CN[C@H](C(=O)O)[C@H]1O; Hyp = O=C(O)[C@@H]1C[C@@H](O)CN1
Assay: Dissolution of anidulafungin powder in the polysorbate 80 solution
Type: physicochemical
Experimental: Next the active ingredient is added. […] Even in small scale experiments the dissolution needs more than 4 hours. The dissolution can be accelerated by a pre-treatment of the active ingredient, preferably by dispersing the active ingredient in a pharmaceutically acceptable solvent, preferably in WFI, e.g. in an ultrasonic bath, and using this dispersion in step (b).
Dissolve the pre-weighed amount of polysorbate 80 in about 75% of total amount of WFI, rinse weighing container with 100 ml of WFI into reactor; stir not less than 20 min until excipient completely dissolves with a mechanical stirrer at a speed of 150-190 rpm.
Add about 7% of total amount of WFI to the pre-weighed amount of the active pharmaceutical ingredient (API) anidulafungin in glass bottle, screw the cap, shake bottle well in order to promote wetting of API and transfer it into ultrasonic bath for homogenisation. Take not less than 3 cycles of homogenisation for 10 min. Slightly shake the bottle after each cycle, in order to rinse API particles from the walls of the bottle's upper part into suspension. After white, well-homogenized suspension is obtained, transfer it into intermediate product preparation reactor, stir with a mechanical stirrer at a speed of 150-190 rpm until substance dissolves completely.
100% of the particles were below 750 µm. Particle sizes were analysed by laser diffraction with dry dispersion using a Malvern Mastersizer 3000 instrument. The size distribution was determined from the light scattering data using the theory of light scattering developed by Gustav Mie. […] It remained an undissolved residue of about 5% which corresponds to particles with more than about 400 µm. About 9-10% of the particles were bigger than 350 µm.
In a second experiment an aliquot of the anidulafungin powder was sieved through a 50 mesh sieve, corresponding to a mesh width of 297 µm to remove the bigger particles.

SMILES	dissolution in the polysorbate 80 solution (after treatment of the powder in an ultrasonic bath)	time needed for dissolution (particles with a particle size of more than 400 µm, small scale experiments, solubilizing agent added)	undissolved residue (polysorbate 80 solution, vigorous stirring for 4 h, powder D90 339 µm)	dissolution in the polysorbate 80 solution (vigorous stirring for 4 h, powder D90 339 µm, unsieved)	dissolution in the polysorbate 80 solution (powder sieved through a 50 mesh sieve (297 µm), mechanical stirrer)
CCCCCOc1ccc(-c2ccc(-c3ccc(C(=O)N[C@H]4C[C@@H](O)[C@@H](O)NC(=O)[C@@H]5[C@@H](O)[C@@H](C)CN5C(=O)[C@H]([C@@H](C)O)NC(=O)[C@H]([C@H](O)[C@@H](O)c5ccc(O)cc5)NC(=O)[C@@H]5C[C@@H](O)CN5C(=O)[C@H]([C@@H](C)O)NC4=O)cc3)cc2)cc1 [anidulafungin powder, anidulafungin] ({pTerphenylCO(4''-OnC5H11)}-[Orn(4R-OH,5R-OH)]T[Hyp][hTyr(3S-OH,4S-OH)]T[Pro(3S-OH,4S-Me)]; lactam 1-C)	complete dissolution could be achieved	more than 4 hours	about 5%	could not be dissolved completely	
CCCCCOc1ccc(-c2ccc(-c3ccc(C(=O)N[C@H]4C[C@@H](O)[C@@H](O)NC(=O)[C@@H]5[C@@H](O)[C@@H](C)CN5C(=O)[C@H]([C@@H](C)O)NC(=O)[C@H]([C@H](O)[C@@H](O)c5ccc(O)cc5)NC(=O)[C@@H]5C[C@@H](O)CN5C(=O)[C@H]([C@@H](C)O)NC4=O)cc3)cc2)cc1 [sieved powder, anidulafungin] ({pTerphenylCO(4''-OnC5H11)}-[Orn(4R-OH,5R-OH)]T[Hyp][hTyr(3S-OH,4S-OH)]T[Pro(3S-OH,4S-Me)]; lactam 1-C)					could be dissolved easily

Reference: patent EP3058958B1, “ANIDULAFUNGIN COMPOSITION” (Selectchemie AG, priority 2015, dated 2016)
